In PubChem BioAssay (NCI):
Values joined by “and” are separate entries in the source; they are usually repeats but may differ in a detail not shown here. Equal values may be shown once.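 Cells were grown in 96-well plates and exposed to each compound for 48 hours at five concentrations; endpoints were interpolated linearly between bracketing concentrations, or set to the highest concentration if not reached. At the GI50, growth is halved. TGI: total growth inhibition.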

How the values were obtained:
Test in all cases: DTP human tumour cell line panel, 48 h
[1] = tested on: SK-MEL-5 melanoma
[2] = tested on: SN12C renal
[3] = tested on: NCI-H23 lung
[4] = tested on: MALME-3M melanoma
[5] = tested on: BT-549 breast
[6] = tested on: HOP-62 NSCLC
[7] = tested on: HS 578T breast
[8] = tested on: IGROV1 ovarian

C=C1C(=O)O[C@@H]2C[C@@]3(C)CC(=O)C=C(C)[C@@H]3C[C@H]12
TGI [1]: 22.9 µM
TGI [2]: 26.2 µM
TGI [3]: 29.9 µM
TGI [4]: 21.7 µM
TGI [5]: 27.6 µM
TGI [6]: 34.4 µM
TGI [7]: 99.7 µM
TGI [8]: 32.2 µM

COc1cc(Nc2ccnc(N3CCN(c4ccnc5cc(Cl)ccc45)CC3)n2)cc(OC)c1
GI50 [2]: 1.28 µM
TGI [2]: > 100 µM
GI50 [3]: 1.32 µM
TGI [3]: > 100 µM
GI50 [6]: 1.98 µM
TGI [6]: 14.2 µM
GI50 [7]: 2.59 µM
TGI [7]: > 100 µM
GI50 [8]: 1.36 µM
TGI [8]: > 26.1 µM

CCc1nc(N)nc(N)c1-c1ccc([N+](=O)[O-])c(NCc2ccccc2)c1
TGI [1]: 22.9 µM
TGI [2]: 44.5 µM
TGI [3]: > 60.6 µM
TGI [5]: 47.1 µM
TGI [6]: 28.9 µM
TGI [7]: 51.4 µM
TGI [8]: 26.3 µM

CNC(=O)Nc1ccc(-c2nc(N3CCOCC3)nc3c2cnn3C2CCOCC2)cc1
GI50 [1]: 0.208 µM
TGI [1]: 1.22 µM
GI50 [2]: 0.213 µM
TGI [2]: > 100 µM
GI50 [3]: 0.267 µM
TGI [3]: > 100 µM
GI50 [4]: 0.0509 µM
TGI [4]: 0.44 µM
GI50 [5]: 0.132 µM
TGI [5]: 2.08 µM
GI50 [6]: 0.23 µM
TGI [6]: 4.38 µM
GI50 [7]: 0.0503 µM
TGI [7]: 0.303 µM
GI50 [8]: 0.0794 µM
TGI [8]: 0.493 µM

CC[C@H](C)[C@H](NC(=O)c1cnccn1)C(=O)N(C)[C@H](C[C@@H](OC(C)=O)c1nc(C(=O)N[C@@H](Cc2ccccc2)C[C@H](C)C(=O)OC)cs1)C(C)C
GI50 [1]: 0.809 µM
TGI [1]: 2.87 µM
GI50 [2]: 2.22 µM
TGI [2]: > 33.3 µM
GI50 [3]: 1.69 µM
TGI [3]: > 33.3 µM
GI50 [4]: 3.3 µM
TGI [4]: > 33.3 µM
GI50 [6]: 1.88 µM
TGI [6]: > 33.3 µM
GI50 [7]: 0.941 µM
TGI [7]: 10.6 µM
GI50 [8]: 1.04 µM
TGI [8]: > 33.3 µM

Clc1ccc(COC(Cn2ccnc2)c2ccc(Cl)cc2Cl)cc1 (stereo not drawn)
GI50 [1]: 1.74 µM and 17.2 µM and 4.83 µM
TGI [1]: 3.64 µM and 31 µM and 18.9 µM
GI50 [2]: 2.5 µM
TGI [2]: 12.7 µM and 25.3 µM
GI50 [3]: 2.08 µM
TGI [3]: 10.2 µM and 28.7 µM and 29.7 µM
GI50 [4]: 2.22 µM
TGI [4]: 6.36 µM and 28.2 µM and 31.1 µM
GI50 [5]: 2.48 µM
TGI [5]: 6.63 µM and 35.3 µM and 30.4 µM
GI50 [6]: 3.02 µM
TGI [6]: 13.6 µM and 26.8 µM and 35.6 µM
GI50 [7]: 3.72 µM
TGI [7]: 22.9 µM and 38.8 µM and 40.5 µM
GI50 [8]: 2.62 µM
TGI [8]: 12.3 µM and 25.8 µM and 26.1 µM

CC(CO)[C@H]1OC(=O)C=C2[C@@]13O[C@@H]3[C@H]1OC(=O)[C@@]3(C)[C@H]4O[C@H]4C[C@@]2(C)[C@@H]13 (stereo partly drawn)
TGI [1]: > 37.5 µM
TGI [2]: 13.6 µM
TGI [3]: > 36.6 µM
TGI [4]: 8.46 µM
TGI [5]: 8.2 µM
TGI [6]: > 100 µM
TGI [7]: 12.6 µM
TGI [8]: 12 µM

COc1cc(-c2oc3ccccc3c(=O)c2O)cc(OC)c1OC
TGI [1]: > 100 µM
TGI [2]: > 100 µM
TGI [3]: > 100 µM
TGI [4]: > 100 µM
TGI [5]: > 100 µM
TGI [6]: 71.1 µM
TGI [7]: 98.9 µM
TGI [8]: > 100 µM

Cc1ccc(C(=O)/C(=C/c2ccc([N+](=O)[O-])cc2)S(=O)Cc2ccccc2)cc1 (stereo not drawn)
GI50 [1]: 1.6 µM
TGI [1]: 2.99 µM
GI50 [2]: 1.71 µM
TGI [2]: 3.4 µM
GI50 [3]: 1.86 µM
TGI [3]: 5.25 µM
GI50 [4]: 1.69 µM
TGI [4]: 3.54 µM
GI50 [5]: 1.79 µM
TGI [5]: 3.49 µM
GI50 [6]: 2.02 µM
TGI [6]: 4.46 µM
GI50 [7]: 2.58 µM
TGI [7]: 8.87 µM
GI50 [8]: 1.42 µM
TGI [8]: 3.29 µM
